Test results taken from patent publication US8252832B2, “Kinesin inhibitors as cancer therapeutics” (Novartis AG, priority 2007, dated 2012).
Where two headings read alike, the source gives them in different places.

System: panel of cell lines derived from hematological malignancies
Test: Cell survival assay, CellTiter-Glo readout after 48 hours, hematological panel
Format: cell-based
Design: key to Differential: panel average log(GI50) minus cell line log(GI50); positive = more sensitive
Protocol: Compound IIa was tested against a panel of cell lines derived from hematological malignancies in a cell survival assay using CellTiter-Glo® as a readout after 48 hours in the presence of compound. Table 18 lists the type of hematological malignancy, the name of the sample, its GI50 (concentration needed to achieve 50% growth inhibition) value in the assay, the logarithm of the GI50 (log(GI50), and the relative sensitivity of each sample (Differential). The differential is calculated by subtracting the log(GI50) for each cell line from the average log(GI50) across the entire panel (0.236 in this case); a positive value indicates a sample that is more sensitive than average, whereas a negative value indicates a sample that is less sensitive than average.

Structure (SMILES): CC(C)(C)[C@H](c1nc(-c2cc(F)ccc2F)cn1Cc1ccccc1)N(CC[C@H](N)CF)C(=O)CO [Compound IIa]
- Differential (697 (ALL)): 0.613
- GI50 (48 h, 697 (ALL), read-out: GI50): 0.11 nM
- GI50 (48 h, 697 (ALL), read-out: Log(GI50) (converted)): 0.105 nM
- GI50 (48 h, AML-193 (AML), read-out: GI50): 0.11 nM
- GI50 (48 h, AML-193 (AML), read-out: Log(GI50) (converted)): 0.11 nM
- GI50 (48 h, DEL (NHL), read-out: GI50): 0.28 nM
- GI50 (48 h, DEL (NHL), read-out: Log(GI50) (converted)): 0.283 nM
- GI50 (48 h, H929-Luc (MM), read-out: GI50): 1.69 nM
- GI50 (48 h, H929-Luc (MM), read-out: Log(GI50) (converted)): 1.69 nM
- GI50 (48 h, HEL92 (AML), read-out: GI50): 0.49 nM
- GI50 (48 h, HEL92 (AML), read-out: Log(GI50) (converted)): 0.49 nM
- GI50 (48 h, HH (NHL), read-out: GI50): 0.22 nM
- GI50 (48 h, HH (NHL), read-out: Log(GI50) (converted)): 0.215 nM
- GI50 (48 h, KMS11-Luc (MM), read-out: GI50): 0.29 nM
- GI50 (48 h, KMS11-Luc (MM), read-out: Log(GI50) (converted)): 0.29 nM
- GI50 (48 h, KMS12 (MM), read-out: GI50): 0.29 nM
- GI50 (48 h, KMS12 (MM), read-out: Log(GI50) (converted)): 0.29 nM
- GI50 (48 h, KMS18-Luc (MM), read-out: GI50): 0.52 nM
- GI50 (48 h, KMS18-Luc (MM), read-out: Log(GI50) (converted)): 0.518 nM
- GI50 (48 h, Karpas-299-Luc (NHL), read-out: GI50): 20.2 nM
- GI50 (48 h, Karpas-299-Luc (NHL), read-out: Log(GI50) (converted)): 20.2 nM
- GI50 (48 h, LP1 (MM), read-out: GI50): 0.21 nM
- GI50 (48 h, LP1 (MM), read-out: Log(GI50) (converted)): 0.205 nM
- GI50 (48 h, MHH-CALL-2 (ALL), read-out: GI50): 0.32 nM
- GI50 (48 h, MHH-CALL-2 (ALL), read-out: Log(GI50) (converted)): 0.315 nM
- GI50 (48 h, MHH-CALL-3 (ALL), read-out: GI50): 0.2 nM
- GI50 (48 h, MHH-CALL-3 (ALL), read-out: Log(GI50) (converted)): 0.2 nM
- GI50 (48 h, MM1-S-Luc (MM), read-out: GI50): 0.23 nM
- GI50 (48 h, MM1-S-Luc (MM), read-out: Log(GI50) (converted)): 0.23 nM
- GI50 (48 h, MOLM13-Luc (AML), read-out: GI50): 0.23 nM
- GI50 (48 h, MOLM13-Luc (AML), read-out: Log(GI50) (converted)): 0.226 nM
- GI50 (48 h, MUTZ-5 (ALL), read-out: GI50): 10 nM
- GI50 (48 h, MUTZ-5 (ALL), read-out: Log(GI50) (converted)): 10 nM
- GI50 (48 h, MV4, 11Luc (AML), read-out: GI50): 0.11 nM
- GI50 (48 h, MV4, 11Luc (AML), read-out: Log(GI50) (converted)): 0.105 nM
- GI50 (48 h, Mean across the entire panel, read-out: GI50): 0.43 nM
- GI50 (48 h, Mean across the entire panel, read-out: Log(GI50) (converted)): 0.431 nM
- GI50 (48 h, NALM-19 (ALL), read-out: GI50): 0.19 nM
- GI50 (48 h, NALM-19 (ALL), read-out: Log(GI50) (converted)): 0.19 nM
- GI50 (48 h, REH (ALL), read-out: GI50): 0.18 nM
- GI50 (48 h, REH (ALL), read-out: Log(GI50) (converted)): 0.18 nM
- GI50 (48 h, RL (NHL), read-out: GI50): 20 nM
- GI50 (48 h, RL (NHL), read-out: Log(GI50) (converted)): 20 nM
- GI50 (48 h, SEM-Luc (ALL), read-out: GI50): 0.15 nM
- GI50 (48 h, SEM-Luc (ALL), read-out: Log(GI50) (converted)): 0.15 nM
- GI50 (48 h, SR (NHL), read-out: GI50): 0.11 nM
- GI50 (48 h, SR (NHL), read-out: Log(GI50) (converted)): 0.11 nM
- GI50 (48 h, TANOUE (ALL), read-out: GI50): 10 nM
- GI50 (48 h, TANOUE (ALL), read-out: Log(GI50) (converted)): 10 nM
- GI50 (48 h, YT (ALL), read-out: GI50): 10 nM
- GI50 (48 h, YT (ALL), read-out: Log(GI50) (converted)): 10 nM
- GI50 (48 h, hematological panel, read-out: average log(GI50) across the entire panel (converted)): 1.72 nM
- Differential (AML-193 (AML)): 0.593
- Differential (CCRF-CEM (ALL)): 0.419
- Differential (CCRF-HSB-2 (ALL)): 0.367
- Differential (DEL (NHL)): 0.182
- Differential (DOHH2 (NHL)): 0.263
- Differential (H929 (MM)): 0.109
- Differential (H929-Luc (MM)): −0.593
- Differential (HDLM-2 (HL)): 0.555
- Differential (HEL92 (AML)): −0.056
- Differential (HH (NHL)): 0.301
- Differential (HL60 (AML)): 0.416
- Differential (HL60-Luc (AML)): −0.072
- GI50 (HL-60-Luc, 48 h, HL60-Luc (AML), read-out: GI50): 0.51 nM
- GI50 (HL-60-Luc, 48 h, HL60-Luc (AML), read-out: Log(GI50) (converted)): 0.508 nM
- GI50 (Homo sapiens, CCRF-CEM, 48 h, CCRF-CEM (ALL), read-out: GI50): 0.16 nM
- GI50 (Homo sapiens, CCRF-CEM, 48 h, CCRF-CEM (ALL), read-out: Log(GI50) (converted)): 0.164 nM
- GI50 (Homo sapiens, CCRF-HSB-2, 48 h, CCRF-HSB-2 (ALL), read-out: GI50): 0.19 nM
- GI50 (Homo sapiens, CCRF-HSB-2, 48 h, CCRF-HSB-2 (ALL), read-out: Log(GI50) (converted)): 0.185 nM
- GI50 (Homo sapiens, DOHH-2, 48 h, DOHH2 (NHL), read-out: GI50): 0.24 nM
- GI50 (Homo sapiens, DOHH-2, 48 h, DOHH2 (NHL), read-out: Log(GI50) (converted)): 0.235 nM
- GI50 (Homo sapiens, HDLM-2, 48 h, HDLM-2 (HL), read-out: GI50): 0.12 nM
- GI50 (Homo sapiens, HDLM-2, 48 h, HDLM-2 (HL), read-out: Log(GI50) (converted)): 0.12 nM
- GI50 (Homo sapiens, HL-60, 48 h, HL60 (AML), read-out: GI50): 0.17 nM
- GI50 (Homo sapiens, HL-60, 48 h, HL60 (AML), read-out: Log(GI50) (converted)): 0.165 nM
- GI50 (Homo sapiens, HuT78, 48 h, HuT78 (NHL), read-out: GI50): 0.28 nM
- GI50 (Homo sapiens, HuT78, 48 h, HuT78 (NHL), read-out: Log(GI50) (converted)): 0.275 nM
- GI50 (Homo sapiens, K562, 48 h, K562 (CML), read-out: GI50): 0.21 nM
- GI50 (Homo sapiens, K562, 48 h, K562 (CML), read-out: Log(GI50) (converted)): 0.209 nM
- GI50 (Homo sapiens, KARPAS-299, 48 h, Karpas-299 (NHL), read-out: GI50): 0.2 nM
- GI50 (Homo sapiens, KARPAS-299, 48 h, Karpas-299 (NHL), read-out: Log(GI50) (converted)): 0.2 nM
- GI50 (Homo sapiens, KARPAS-422, 48 h, Karpas-422 (NHL), read-out: GI50): 5.14 nM
- GI50 (Homo sapiens, KARPAS-422, 48 h, Karpas-422 (NHL), read-out: Log(GI50) (converted)): 5.14 nM
- GI50 (Homo sapiens, KM-H2, 48 h, KM-H2 (HL), read-out: GI50): 0.23 nM
- GI50 (Homo sapiens, KM-H2, 48 h, KM-H2 (HL), read-out: Log(GI50) (converted)): 0.233 nM
- GI50 (Homo sapiens, KMS-11, 48 h, KMS11 (MM), read-out: GI50): 0.48 nM
- GI50 (Homo sapiens, KMS-11, 48 h, KMS11 (MM), read-out: Log(GI50) (converted)): 0.483 nM
- GI50 (Homo sapiens, Kasumi 1, 48 h, Kasumi-1 (AML), read-out: GI50): 0.44 nM
- GI50 (Homo sapiens, Kasumi 1, 48 h, Kasumi-1 (AML), read-out: Log(GI50) (converted)): 0.44 nM
- GI50 (Homo sapiens, L-363, 48 h, L363 (MM), read-out: GI50): 0.13 nM
- GI50 (Homo sapiens, L-363, 48 h, L363 (MM), read-out: Log(GI50) (converted)): 0.13 nM
- GI50 (Homo sapiens, L-428, 48 h, L428 (HL), read-out: GI50): 20 nM
- GI50 (Homo sapiens, L-428, 48 h, L428 (HL), read-out: Log(GI50) (converted)): 20 nM
